# Measured values reported in patent publication US8771967B2, “Immunomodulation of functional T cell assays for diagnosis of infectious or autoimmune disorders” (priority 2010, dated 2014).
# B1: IL-12: inflammatory cytokine purchased from R&D System (protein, UniProt P29459 23-219; P29460 23-328, looked up)
# Interleukin-12 subunit alpha: RNLPVATPDPGMFPCLHHSQNLLRAVSNMLQKARQTLEFYPCTSEEIDHEDITKDKTSTVEACLPLELTKNESCLNSRETSFITNGSCLASRKTSFMMALCLSSIYEDLKMYQVEFKTMNAKLLMDPKRQIFLDQNMLAVIDELMQALNFNSETVPQKSSLEEPDFYKTKIKLCILLHAFRIRAVTIDRVMSYLNAS
# Interleukin-12 subunit beta: IWELKKDVYVVELDWYPDAPGEMVVLTCDTPEEDGITWTLDQSSEVLGSGKTLTIQVKEFGDAGQYTCHKGGEVLSHSLLLLHKKEDGIWSTDILKDQKEPKNKTFLRCEAKNYSGRFTCWWLTTISTDLTFSVKSSRGSSDPQGVTCGAATLSAERVRGDNKEYEYSVECQEDSACPAAEESLPIEVMVDAVHKLKYENYTSSFFIRDIIKPDPPKNLQLKPLKNSRQVEVSWEYPDTWSTPHSYFSLTFCVQVQGKSKREKKDRVFTDKTSATVICRKNASISVRAQDRYYSSSWSEWASVPCS
# Columns and labels:
# [1] = test system: blood cells in the Nil tube; assay: Cytokine profiling of plasma from the QFT-GIT Nil tube after immunomodulation; type: cell-based, human; conditions: poly(I:C) 40 μg/ml, LPS 250 pg/ml, 22 h
# Experimental: Was performed at the Human Immune Monitoring Center (HIMC) at Stanford University. 100 μl of plasma from the QFT-GIT Nil tube was subjected to cytokine profiling. Procarta Cytokine Assay custom 51-plex kit (Affymetrix, Palo Alto, Calif.) was used according to manufacturer's recommendations.
# [2] = test system: M. tuberculosis-specific T cells; assay: QuantiFERON-TB Gold In-Tube (QFT-GIT) whole blood IFN-γ release assay with immunomodulation by TLR agonists; conditions: for IFN-γ responses compared to the standard assay in anergic subjects / IFN-γ response at intermediate concentration / enhancement of IFN-γ response (median): poly(I:C) 40 μg/ml, imiquimod 2 μg/ml; for IFN-γ responses compared to the standard assay in anergic subjects: P <0.05; for IFN-γ response compared to the standard assay, two concentrations: 8 subjects with LTBI, poly(I:C) 10 and 100 μg/ml, LPS 125 and 500 pg/ml, imiquimod 1 and 5 μg/ml; for kinetics of IFN-γ release: QFT-GIT with immunomodulation vs without, correlated with cytokine induction / APC maturation; for enhancement of IFN-γ response (median): vs standard QFT-GIT; for recapitulation of the effects of TLR agonists on the QFT-GIT assay: IL-6 at 200 and 2000 pg/ml, IL-12 at 12.5 and 25 pg/ml, INF-α at 15 and 30 pg/ml, alone or in combination
# From the text: Healthy adults were recruited from the Stanford Hospital clinical laboratories using a protocol approved by the Institutional Review Board. After obtaining in informed consent, volunteers were asked to complete a standardized questionnaire to assess risk factors for TB exposure. LTBI was defined as prior history of positive TST and QFT-GIT and ≧1 risk factor for LTBI. Uninfected control was defined as US born with prior negative TST and QFT-GIT and no risk factors.
# The QFT-GIT assay was performed according to package insert with a slight modification described below. Up to 10 μA of each TLR agonist or an equivalent volume of endotoxin-free water was added to each QFT-GIT tube. Blood was collected in a 10 mL Kendall Monoject Green Stopper tube and 1 mL was quickly transferred to each QFT-GIT tube. Tubes were placed in a 3TC incubator for 22 hours or as indicated. ELISA was performed according to package insert. […] Calculation of IFN-γ concentrations was done with the software provided by the manufacturer.
# Statistical analyses were performed using the Prism software (Graph Pad, San Diego, Calif.). The Wilcoxon's test of medians was used to compare differences in medians. All statistical tests were computed for a two-sided type I error rate of 5%.
# [3] = test system: antigen presenting cells; assay: Flow cytometry of surface expression of MHC and costimulatory molecules in the QFT-GIT assay; type: cell-based, human; conditions: compared to unstimulated blood cells; LPS 250 pg/ml, poly(I:C) 40 μg/ml; 3 and 6 hours
# Experimental: The QFT-GIT tubes were incubated upside down to prevent migration of cells into the gel layer. At the end of incubation 100 μl of 20 mM EDTA was added per tube. Samples were vortexed and incubated at room temperature for 15 minutes. Blood was transferred to a 15 ml polypropylene tube containing 9 ml of 1×FACS™ Lysing Solution (BD Biosciences, Immunocytometry Systems, San Jose, Calif.). Samples were incubated at room temperature for 10 minutes and directly transferred to a −70° C. freezer for storage. The cell surface immune profiling studies were performed at the HIMC. The cells were thawed in warm media, washed once with FACS buffer (PBS supplemented with 2% FBS and 0.1% sodium azide) and resuspended at 1×10^7 viable cells/ml. 5×10^5 cells per well were stained for 45 min at room temperature with the following antibodies: All reagents were purchased from BD Biosciences. Cells were washed three times with FACS buffer, and resuspended in […]. 10,000 cells per sample were collected using DIVA 6.0 software on an LSR11 flow cytometer (BD Biosciences). Data analysis was performed using FlowJo v9.3 by gating on live cells based on forward versus side scatter profiles, then on singlets using forward scatter area versus height, followed by cell subset-specific gating.
# [4] = 8 individuals with histories of LTBI but currently negative QFT-GIT, LPS 250 pg/ml
# [5] = subjects with LTBI, LPS 250 pg/ml
# [6] = uninfected controls, LPS 250 pg/ml
Molecule,"levels of IL-6, IL-12 p40, IFN-α, and other cytokines [1]","consistency in eliciting a response higher than the cutoff value for the standard assay ([2]; 8 individuals with histories of LTBI but currently negative QFT-GIT, cutoff 0.35 IU/ml)","IFN-γ responses compared to the standard assay in anergic subjects [2, 4]","IFN-γ response compared to the standard assay, two concentrations [2]",kinetics of IFN-γ release [2],"IFN-γ response at intermediate concentration [2, 5]","enhancement of IFN-γ response (median) [2, 5]","magnitude of the IFN-γ responses (TB Ag minus Nil) [2, 6]","IFN-γ response at intermediate concentration [2, 6]",surface expression of MHC II and costimulatory molecules in monocytes and partially in B cells and myeloid dendritic cells [3],recapitulation of the effects of TLR agonists on the QFT-GIT assay [2]
lipopolysaccharide [LPS],significantly increased,most consistent,significantly increased,dose-dependent enhancement,earlier and more robust release of IFN-γ,significant enhancement,3.1 fold,≤ 0.5 IU/ml,significantly increased,increased,–
poly(I:C),significantly increased,–,significantly increased,dose-dependent enhancement,earlier and more robust release of IFN-γ,significant enhancement,5.7 fold,–,not in the uninfected controls,not,–
IL-6: inflammatory cytokine purchased from R&D System,–,–,–,–,–,–,–,–,–,–,failed to recapitulate
CC(C)Cn1cnc2c(N)nc3ccccc3c21 [imiquimod],–,–,significantly increased,dose-dependent enhancement,–,significant enhancement,3 fold,–,not in the uninfected controls,–,–
B1,–,–,–,–,–,–,–,–,–,–,failed to recapitulate
